The test system of one experiment is ALCL cell line SR. The experiment is described as follows: Proliferation inhibition (IC50) in lymphoma cell line SR, cell viability assay. The class given is cell-based. As to conditions: 72 h, SR cells, WST reagent. From the text: (§1) We tested the anti-proliferation activities of the compounds of the present invention in ALCL cell line SR and Mantle cell lymphoma Mino (which overexpressed IKZF1/3, but were not sensitive to immunomodulatory drugs) through a dose-dependent manner. […] The experiment was repeated more than three times.

The test system of experiment [1] is Mantle cell lymphoma Mino. In words: Proliferation inhibition (IC50) in lymphoma cell line Mino, cell viability assay. The class given is cell-based. As to conditions: Mino cells; for IC50: 72 h, WST reagent.
From the text: as §1

For another experiment, the system named is MM.1S cells. The experiment is described as follows: Proliferation inhibition (IC50) in MM.1S cells, cell viability assay. As to conditions: Homo sapiens, MM1.S, 72 h, read-out: IC50 (nM), proliferation inhibitory activity of MM.1S cells (half inhibitory concentration).

For `O=C1CCC(N2Cc3c(SCc4ccc(CCNC56CC7CC(CC(C7)C5)C6)cc4)cccc3C2=O)C(=O)N1` (centres unmarked) [SIAIS287128, 3-(4-((4-(2-(adamantan-1-ylamino)ethyl)benzyl)thio)-1-oxoisoindolin-2-yl)piperidine-2,6-dione], the IC50 in the experiment on ALCL cell line SR (Homo sapiens, SR) was approximately 0.3 nM; in the experiment on ALCL cell line SR, 0.297 nM; in experiment [1] (Homo sapiens, MINO) it was approximately 0.29 nM; in experiment [1], 0.289 nM; in the experiment with MM.1S cells, 0.018 ± 0.005 nM. Besides, the “IC50 times lower than Pomalidomide” value in experiment [1] (versus pomalidomide IC50 48 nM) stood at 165 times.
As to `O=C1CCC(N2Cc3c(SCCCCCCCNC45CC6CC(CC(C6)C4)C5)cccc3C2=O)C(=O)N1` (centres unmarked) [SIAIS1220155, 3-(4-((7-((adamantan-1-yl)amino)heptyl)thio)-1-oxoisoindolin-2-yl)piperidine-2,6-dione], the IC50 in the experiment with ALCL cell line SR (Homo sapiens, SR) is 7.42 nM; in experiment [1] (Homo sapiens, MINO), 0.776 nM; with MM.1S cells, 0.02 nM.
For `O=C1CCC(N2Cc3c(SCc4ccc(CN5CCCCC5)cc4)cccc3C2=O)C(=O)N1` (centres unmarked) [SIAIS1220165, 3-(1-oxo-4-((4-(piperidin-1-ylmethyl)benzyl)thio)isoindolin-2-yl)piperidine-2,6-dione], the IC50 came to 1.89 nM in the experiment with ALCL cell line SR (Homo sapiens, SR); 5.83 nM in experiment [1] (Homo sapiens, MINO); 0.09 nM with MM.1S cells.
As to `O=C1CCC(N2Cc3c(SCc4ccc(CCN5CCC6(CC5)CC6)cc4)cccc3C2=O)C(=O)N1` (centres unmarked) [SIAIS1227163, 3-(4-((4-(2-(6-azaspiro[2.5]octan-6-yl)ethyl)benzyl)thio)-1-oxoisoindolin-2-yl)piperidine-2,6-dione], the IC50 with MM.1S cells is 0.021 nM.
Still for that read-out and setting: the same measure for `CC1CC(C)CN(CCc2ccc(CSc3cccc4c3CN(C3CCC(=O)NC3=O)C4=O)cc2)C1` (centres unmarked) [SIAIS1227165, 3-(4-((4-(2-(3,5-dimethylpiperidin-1-yl)ethyl)benzyl)thio)-1-oxoisoindolin-2-yl)piperidine-2,6-dione]: 0.023 nM.
Take `O=C1CCC(N2Cc3c(SCc4ccc(CN5CCC(F)(F)CC5)cc4)cccc3C2=O)C(=O)N1` (centres unmarked) [SIAIS1227167, 3-(4-((4-((4,4-difluoropiperidin-1-yl)methyl)benzyl)thio)-1-oxoisoindolin-2-yl)piperidine-2,6-dione]: in the experiment with MM.1S cells, the IC50 came out at 0.064 nM.
The same measure, in the same setting: in the case of `CN1CCN(Cc2ccc(CSc3cccc4c3CN(C3CCC(=O)NC3=O)C4=O)cc2)CC1` (centres unmarked) [SIAIS1227169, 3-(4-((4-((4-methylpiperazin-1-yl)methyl)benzyl)thio)-1-oxoisoindolin-2-yl)piperidine-2,6-dione] it was 0.12 nM; in that of `O=C1CCC(N2Cc3c(SCc4ccc(CN5C[C@H]6CCCC[C@H]6C5)cc4)cccc3C2=O)C(=O)N1` (stereo partly drawn) [SIAIS1227171, 3-(4-((4-(((3aR,7aS)-octahydro-2H-isoindol-2-yl)methyl)benzyl)thio)-1-oxoisoindolin-2-yl)piperidine-2,6-dione], 0.021 nM.
On the same count and under the same terms, the same measure for `C[C@@H](NCc1ccc(CSc2cccc3c2CN(C2CCC(=O)NC2=O)C3=O)cc1)C1CC1` (stereo partly drawn) [SIAIS1227173, 3-(4-((4-((((R)-1-cyclopropylethyl)amino)methyl)benzyl)thio)-1-oxoisoindolin-2-yl)piperidine-2,6-dione]: 0.095 nM.
Same read-out and setting: in the case of `O=C1CCC(N2Cc3c(SCc4ccc(CN5CCCCC5)cc4F)cccc3C2=O)C(=O)N1` (centres unmarked) [SIAIS1227175, 3-(4-((2-fluoro-4-(piperidin-1-ylmethyl)benzyl)thio)-1-oxoisoindolin-2-yl)piperidine-2,6-dione] it was 0.073 nM; in that of `O=C1CCC(N2Cc3c(SCc4ccc(CNC5CCCCC5)cc4F)cccc3C2=O)C(=O)N1` (centres unmarked) [SIAIS1227177, 3-(4-((4-((cyclohexylamino)methyl)-2-fluorobenzyl)thio)-1-oxoisoindolin-2-yl)piperidine-2,6-dione], 0.097 nM; in that of `O=C1CCC(N2Cc3c(SCc4ccc(CNC56CC7CC(CC(C7)C5)C6)cc4F)cccc3C2=O)C(=O)N1` (centres unmarked) [SIAIS1227179, 3-(4-((4-(((adamantan-1-yl)amino)methyl)-2-fluorobenzyl)thio)-1-oxoisoindolin-2-yl)piperidine-2,6-dione], 0.029 nM.
On to `O=C1CCC(N2Cc3c(SCc4ccc(CN5CCOCC5)cc4F)cccc3C2=O)C(=O)N1` (centres unmarked) [SIAIS1227181, 3-(4-((2-fluoro-4-(morpholinomethyl)benzyl)thio)-1-oxoisoindolin-2-yl)piperidine-2,6-dione], for which, in the experiment on MM.1S cells, the IC50 was found to be 0.113 nM.
Same read-out and setting: the same measure for `O=C1CCC(N2Cc3c(SCc4ccc(CNC(C5CC5)C5CC5)cc4)cccc3C2=O)C(=O)N1` (centres unmarked) [SIAIS1227183, 3-(4-((4-(((dicyclopropylmethyl)amino)methyl)benzyl)thio)-1-oxoisoindolin-2-yl)piperidine-2,6-dione]: 0.039 nM; for `O=C1CCC(N2Cc3c(SCc4ccc(CNC56CC7CC(CC5C7)C6)cc4)cccc3C2=O)C(=O)N1` (centres unmarked) [SIAIS1228019, 3-(4-((4-(((hexahydro-2,5-methanopentalen-3a(1H)-yl)amino)methyl)benzyl)thio)-1-oxoisoindolin-2-yl)piperidine-2,6-dione]: 0.051 nM; for `O=C1CCC(N2Cc3c(SCCCCCCCNC45CC6CC(CC4C6)C5)cccc3C2=O)C(=O)N1` (centres unmarked) [SIAIS1228055, 3-(4-((7-((hexahydro-2,5-methanopentalen-3a(1H)-yl)amino)heptyl)thio)-1-oxoisoindolin-2-yl)piperidine-2,6-dione]: 0.028 nM.
Same read-out and setting: the same measure for `O=C1CCC(N2Cc3c(SCCCCCCCN[C@H]4C[C@H]5CC[C@@H]4C5)cccc3C2=O)C(=O)N1` (stereo partly drawn) [SIAIS1228059, 3-(4-((7-(((1R,2S,4S)-bicyclo[2.2.1]heptan-2-yl)amino)heptyl)thio)-1-oxoisoindolin-2-yl)piperidine-2,6-dione]: 0.037 nM.
In the case of `Nc1cccc2c1C(=O)N(C1CCC(=O)NC1=O)C2=O` (centres unmarked) [pomalidomide, reference compound], the IC50 in experiment [1] (Homo sapiens, MINO) came out at 48 nM; in experiment [1] it was 48 nM; in the experiment on MM.1S cells, 9.4 ± 1.3 nM.

Values taken from patent US12582641B2, “Sulfur-containing compound based on glutarimide skeleton and application thereof” (SHANGHAITECH UNIVERSITY, priority 2019, dated 2026).
